Measurements as given in patent publication US12391692B2, “Spiro ring-containing quinazoline compound” (WIGEN BIOMEDICINE TECHNOLOGY (SHANGHAI) CO., LTD., priority 2020, dated 2025).

Key:
H358 cells = assay: Antiproliferative activity against H358 cells (Cell Titer Glow, ultra-low attachment plate); format: cell-based; details: Homo sapiens, NCI-H358, 72 h, three days after addition of compound
Protocol: 2500 H358 cells were seeded in a 96-well ultra-low attachment plate (corning, 7007). After one day of growth, a serially diluted compound (a maximum concentration of 5 μM, 5-fold dilution, a total of five doses) was added. Three days after the addition of the compound, Cell Titer Glow (Promega, G9681) was added to evaluate pellet growth, and the IC50 value was calculated.

pERK level in H358 cells = assay: pERK and ERK protein content assay in H358 cells (ELISA); format: cell-based; details: Homo sapiens, NCI-H358, pERK/ERK ratio vs DMSO group, compound 1 μM, 24 h, read-out: Inhibition rate (%)
Protocol: H358 cells were seeded in a 24-well plate. After one day of growth, a test compound (at a concentration of 1 μM) was added. After 24 h of action of the compound, the cells were lysed, and the cell lysate was transferred to a 96-well ELISA plate. The levels of pERK and ERK in the lysate were measured using an ELISA kit (abcam 176660). The ratio of pERK to ERK was calculated and compared with that of the DMSO group, and the percentage of inhibition of pERK activity by the compound was calculated.

SMILES	IC50 (H358 cells) [nM]	inhibition at 1 µM (pERK level in H358 cells) [%]
C=CC(=O)N1CC2(CCN(c3nc(N4CC(N5CC6(CSC6)C5)C4)nc4c(OCC(F)(F)F)c(-c5c(C)ccc6[nH]ncc56)c(C5CC5)cc34)CC2)C1 [Compound 31]	< 300	> 90
C=CC(=O)N1CC2(CCN(c3nc(N4CC(S(=O)(=O)N5CC(N(C)C)C5)C4)nc4c(OCC(F)(F)F)c(-c5c(C)ccc6[nH]ncc56)c(C5CC5)cc34)CC2)C1 [Compound 50]	300 to 1000	50 to 90
C=CC(=O)N1CC2(CCN(c3nc(N4CCC5(CCCN5CCOC)CC4)nc4c(OCC(F)(F)F)c(-c5c(C)ccc6[nH]ncc56)c(C5CC5)cc34)CC2)C1 [Compound 80]	300 to 1000	50 to 90
C=CC(=O)N1CC2(CCN(c3nc(O[C@H]4C[C@@H](N5CC6(CCC6)C5)C4)nc4c(OCC(F)(F)F)c(-c5c(C)ccc6[nH]ncc56)c(C5CC5)cc34)CC2)C1 [Compound 95]	< 300	> 90
C=CC(=O)N1CC2(CCN(c3nc(N4CC(N(C)CCO)C4)nc4c(OCC(F)(F)F)c(-c5c(C)ccc6[nH]ncc56)c(C5CC5)cc34)CC2)C1 [Compound 21]	< 300	> 90
C=CC(=O)N1CC2(CCN(c3nc(N4CC(N5CC6(CC6)C5)C4)nc4c(OCC(F)(F)F)c(-c5c(C)ccc6cn[nH]c56)c(C5CC5)cc34)CC2)C1 [Compound 109]	< 300	> 90
C=CC(=O)N1CC2(CCN(c3nc(N4CC(C)(CN(C)C)C4)nc4c(OCC(F)(F)F)c(-c5c(C)ccc6[nH]ncc56)c(C5CC5)cc34)CC2)C1 [Compound 62]	< 300	> 90
C=CC(=O)N1CC2(CCN(c3nc(N4CC(N5CC6(CC6)C5)C4)nc4c(OCC(F)(F)F)c(-c5c(F)ccc6[nH]cnc56)c(C5CC5)cc34)CC2)C1 [Compound 108]	< 300	> 90
C=CC(=O)N1CC2(CCN(c3nc(N4CC5(CCN5C5COC5)C4)nc4c(OCC(F)(F)F)c(-c5c(C)ccc6[nH]ncc56)c(C5CC5)cc34)CC2)C1 [Compound 71]	< 300	> 90
C=CC(=O)N1CC2(CCN(c3nc(N4CC5(CC(=C)CN5CC)C4)nc4c(OCC(F)(F)F)c(-c5c(C)ccc6[nH]ncc56)c(C5CC5)cc34)CC2)C1 [Compound 126]	< 300	> 90
C=CC(=O)N1CC2(CCN(c3nc(N4CC(OCC5CC5)C4)nc4c(OCC(F)(F)F)c(-c5c(C)ccc6[nH]ncc56)c(C5CC5)cc34)CC2)C1 [Compound 17]	< 300	> 90
C=CC(=O)N1CC2(CCN(c3nc(N4CC(N5CC6(CC6)C5)C4)nc4c(OCC(F)(F)F)c(-c5c(C)c(C)cc6[nH]ncc56)c(C5CC5)cc34)CC2)C1 [Compound 105]	< 300	> 90
C=CC(=O)N1CC2(CCN(c3nc(N4CC(OC5CCN(C)CC5)C4)nc4c(OCC(F)(F)F)c(-c5c(C)ccc6[nH]ncc56)c(C5CC5)cc34)CC2)C1 [Compound 15]	< 300	> 90
C=CC(=O)N1CC2(CCN(c3nc(N4CC5(CCCN5C(C)C)C4)nc4c(OCC(F)(F)F)c(-c5c(C)ccc6[nH]ncc56)c(C5CC5)cc34)CC2)C1 [Compound 117]	< 300	> 90
C=CC(=O)N1CC2(CCN(c3nc(N4CC(C(=O)N5CC6(CN(C)C6)C5)C4)nc4c(OCC(F)(F)F)c(-c5c(C)ccc6[nH]ncc56)c(C5CC5)cc34)CC2)C1 [Compound 48]	300 to 1000	50 to 90
C=CC(=O)N1CC2(CCN(c3nc(N4CCC(OC5CN(C)C5)CC4)nc4c(OCC(F)(F)F)c(-c5c(C)ccc6[nH]ncc56)c(C5CC5)cc34)CC2)C1 [Compound 16]	< 300	> 90
C=CC(=O)N1CC2(CCN(c3nc(N4CC(N5CC6(CC6)C5)C4)nc4c(OCC(F)(F)F)c(-c5c(C)ccc6[nH]ncc56)c(C=C)cc34)CC2)C1 [Compound 100]	< 300	> 90
